In data set [1] the test system is HEP G2 cells. Briefly: Inhibition of cholesterol biosynthesis in cell cultures (HEP G2 cells), incorporation of 14C-sodium acetate in cholesterol. It counts as cell-based. As to conditions: for IC50 / IC70: Homo sapiens. The procedure: 2) Inhibition of cholesterol biosynthesis in cell cultures (EEP G2 cells)
Determination of the inhibition of the incorporation of ^14 C-sodium acetate in cholesterol
Monolayers of HEP G2 cells in lipoprotein-free medium were preincubated with various concentrations of the sodium salts of the dihydroxycarboxylic acids of the formula II for 1 hour. After adding ^14 C-labeled sodium acetate, the incubation was continued for 3 hours. Tritium-labeled cholesterol was added as an internal standard and an aliquot of the cells was subjected to alkaline hydrolysis. The lipids were extracted using chloroform/methanol 2: 1. After adding carrier cholesterol, the lipid mixture was preparatively separated on TLC plates using chloroform/acetone 9: 1. The cholesterol zone was made visible by staining with iodine vapor, additionally detected using a TLC radio scanner and then scraped off. The amount of ^14 C-cholesterol formed was determined scintigraphically and related to mg of cell protein. The same procedure was carried out with cells from the Bame culture without preincubation with a test compound (so-called "solvent control"). The potency of the test compounds was determined by comparison of the biosynthesized ^14 C-cholesterol in test runs and in "solvent control".

Data set [2] deals with serum total cholesterol. As to the kind of experiment: Hypocholesterolemic activity in rabbits after p.o. administration. It counts as in vivo, male white New Zealand rabbits. Conditions: rabbit p.o. The procedure:
4) Hypocholesterolemic activity in rabbits after p.o. administration
Normolipemic male white New Zealand rabbits, body weight 3-3.5 kg, were divided into groups of 5 animals. The groups in each case received one of the test compounds (sodium salts of the compounds of the formula II), suspended in 1% aqueous methylcellulose (®Tylose MH 300), 5.10 or 20 mg/kg/day daily in the morning by stomach tube. The animals of the control groups received only Tylose MH 300. Every 3-4 days samples of venous blood were taken from all animals 20 hours after the oral administration. The serum total cholesterol was determined enzymatically in these samples using the test combination of Boehringer Mannheim (CHOD-PAP high performance method). The serum cholesterol level of the treated animals was compared with that of the control groups. A "discharge phase" followed the 20-day "treatment phase", in which the change in the serum cholesterol level was further monitored.

In data set [3] the test system is microsomal lipid peroxidation. As to the kind of experiment: Inhibition of microsomal lipid peroxidation (in vitro). It counts as biochemical. Conditions: for IC50: microsomes, read-out: IC50 (50% inhibition of lipid peroxidation). The procedure:
5) Inhibition of microsomal lipid peroxidation (in vitro)
The inhibition of lipid peroxidation was measured under the experimental conditions described by H. Wafers and H. Sies, Eur. J. Biochem. 174, 353-357 (1988). The microsomes were obtained according to the literature cited therein. IC50 denotes the concentration of the test compound in moles per liter which causes a 50% inhibition of lipid peroxidation.

The test system of data set [4] is serum lipoproteins. Briefly: Action on serum lipoproteins and other metabolic parameters of male rats in the subchronic test. It counts as in vivo. Conditions: rat. The procedure:
3) Action on serum lipoproteins and other metabolic parameters of male rats in the subchronic test
Groups of male rats of the strain HOE: WISKf (SPF 71) having a starting weight of above 180 g received the test preparations daily in the morning (sodium salts of the dihydroxycarboxylic acids of the formula II) in polyethylene glycol 400 by stomach tube; the respective control group received only the vehicle. The last (7th) administration was carried out 24 hours before taking blood and sacrificing. There was free access to food and water during the experiment. 24 hours before taking blood, which wall carried out retroorbitally under slight ether anesthesia before and after the treatment period (i.e. on the 1st and 8th day), the food was withdrawn. Total cholesterol was determined in the serum of each individual animal [CHODPAP high performance method of Boehringer Mannheim], and, as a measure of the triglycerides, total glycerol was also determined analytically from the serum pool of all the animals of one group [GPO-PAP high performance method, Boehringer Mannheim].
Immediately after taking blood, the animals were sacrificed by dislocation of the spine, and the relative liver weight, the change in body weight and the food consumption were determined.
For the analysis of the serum lipoproteins, the serum of all the rats of one group was pooled. The serum lipoproteins were separated using the preparative ultracentrifuge.
The following conditions were used for the separation of the fractions VLDL, LDL and HDL:
The determination of the protein was carried out by the method of Lowry et al. [LOWRY O. H., ROSEBOROUGH, N.J., PARR, A. L. and RANDELL, R. J.: J. Biol. Chem. 193, 265 (1951)].

Setting [5] is: 10 mg then 20 mg/kg per day, discharge phase 3.
The mark [6] stands for this setting: 10 mg then 20 mg/kg per day, discharge phase 6.
The mark [7] stands for this setting: 10 mg then 20 mg/kg per day, discharge phase 11.
[8] abbreviates: 10 mg then 20 mg/kg per day, discharge phase 22.
Setting [9] is: 10 mg/kg per day (up to 10th day), administration 3.
[10] abbreviates: 10 mg/kg per day (up to 10th day), administration 10.
Setting [11] is: 20 mg/kg per day (from 11th day), administration 14.
Where [12] appears, read: 20 mg/kg per day (from 11th day), administration 17.
The mark [13] stands for this setting: 20 mg/kg per day (from 11th day), administration 20.
Where [14] appears, read: 100 mg/kg daily by stomach tube, 7 administrations.

Structures can show the parent of a compound that is named as a salt. Where two headings read alike, the source gives them in different places.

Data on 11 molecules can be found in patent publication US5294724A, “4-hydroxytetrahydropyran-2-ones and the corresponding dihydroxycarboxylic acid derivatives, salts and esters and a process for their preparation” (priority 1989, dated 1994).

In the case of `CC(C)c1cc(-c2ccc(F)cc2)c(OC[C@@H](O)C[C@@H](O)CC(=O)[O-])c(C(C)C)c1.[Na+]` [Compound C, 3(R),5(S)-dihydroxy-6[-2-(4-fluorophenyl)-4,6-diisopropylphenoxy]hexanoicacid sodium salt], the IC50 in data set [1] (HepG2, read-out: IC50 (concentration necessary for a 50% inhibition)) was determined as 27 nM. In addition, the IC70 in data set [1] (HepG2, read-out: IC70 (concentration necessary for a 70% inhibition)) came to 70 nM. The “Relative potency in %” value in data set [1] (mevinolin sodium = 100, from IC50) is 185%. Also, the “Relative potency in % (value in parentheses)” value in data set [1] (mevinolin sodium = 100, in parentheses, corresponds to IC70) amounted to 214%. Further, the “Serum total cholesterol, % change compared to control group” value (“Serum total cholesterol, % change” for short) in data set [2] (setting [5]) is listed as -13%; in data set [2] (setting [6]), -23%; in data set [2] (setting [7]), -16%; in data set [2] (setting [8]), “+18%”; in data set [2] (setting [9]), “+7%”; in data set [2] (setting [10]), -32%. In addition, the “Serum total cholesterol, % change” value in data set [2] (setting [11]) is on record as -31%; in data set [2] (setting [12]), -37%; in data set [2] (setting [13]), -36%.
Consider `CC[C@H](C)C(=O)O[C@H]1C[C@@H](C)C=C2C=C[C@H](C)[C@H](CC[C@@H]3C[C@@H](O)CC(=O)O3)[C@H]21` [Mevinolin], for which the “Serum total cholesterol, % change” value in data set [2] (setting [5]) was “+14%”; in data set [2] (setting [6]), -1%; in data set [2] (setting [7]), “+2%”; in data set [2] (setting [8]) it was 0%; in data set [2] (setting [9]), -12%; in data set [2] (setting [10]), -30%. Moreover, the “Serum total cholesterol, % change” value in data set [2] (setting [11]) is recorded as -27%; in data set [2] (setting [12]) it was -24%; in data set [2] (setting [13]), -26%.
Regarding `CC(C)c1cc(S)cc(-c2ccc(F)cc2)c1O` [Process Example 4, 2-(P-Fluorophenyl)-4-mercapto-6-isopropylphenol], in data set [3], the Inhibition (in general, the percentage by which the read-out fell short of the control) at 10^-5 mol/l was 90% and the IC50 turned out to be 4400 nM.
As to `CC(C)c1cc(SC(C)(C)Sc2cc(-c3ccc(F)cc3)c(O)c(C(C)C)c2)cc(-c2ccc(F)cc2)c1O` [Process Example 5, 4,4-(Isopropylidenedithio)-bis-[(2-isopropyl-6-p-fluorophenyl)phenol]], the “Inhibition at 10^-5 mol/l” value in data set [3] came to 11%.
As for `CC(C)c1cc(Sc2ccccc2)cc(-c2ccc(F)cc2)c1O` [Process Example 7, 2-(p-Fluorophenyl)-4-(phenylthio)-6-isopropylphenol], in data set [3], the “Inhibition at 10^-5 mol/l” value came to 92% and the IC50 is 4000 nM.
For the molecule `CC(C)Sc1cc(-c2ccc(F)cc2)c(O)c(C(C)C)c1` [Process Example 8, 2-(p-Fluorophenyl)-4-(isopropylthio)-6-isopropylphenol], in data set [3], the “Inhibition at 10^-5 mol/l” value stood at 1%.
Regarding `Oc1c(-c2ccc(F)cc2)cc(Sc2ccc(F)cc2)cc1C1CC1` [Process Example 12, 2-(p-Fluorophenyl)-4-(p-fluorophenylthio)-6-cyclopropylphenol], in data set [3], the “Inhibition at 10^-5 mol/l” value is 99% and the IC50 amounted to 1500 nM.
Consider `CC(C)c1c(O)c(C(C)C)c(C(C)C)c(O)c1-c1ccc(F)cc1` [Process Example 22, 2-(p-Fluorophenyl)-3,5,6-triisopropyl-1,4-hydroquinone], for which, in data set [3], the “Inhibition at 10^-5 mol/l” value stood at 99% and the IC50 was 1600 nM.
Regarding `CC(=O)Oc1c(-c2ccc(F)cc2)c(C(C)C)c(O)c(C(C)C)c1C(C)C` [Process Example 23, 2,5,6-Triisopropyl-3-(p-fluorophenyl)-4-acetoxyphenol], in data set [3], the “Inhibition at 10^-5 mol/l” value amounted to 98% and the IC50 worked out at 2800 nM.
As for `CCOC(=O)C(C)(C)Oc1ccc(Cl)cc1` [clofibrate, reference compound], in data set [4] (setting [14]), the “Body weight, % changes in the mean value relative to starting” value is recorded as “+8%”; the “Food consumption, % changes in the mean value relative to control” value is reported as “+1%”; the “Glycerol VLDL, % change compared to control” value was “+4%”; the “Liver weight, % changes in the mean value relative to control” value is given as “+15%”. Moreover, in data set [4] (setting [14]), the “Protein LDL, % change compared to control” value is reported as -9%; the “Protein VLDL, % change compared to control” value is on record as -16%; the “Total cholesterol HDL, % change compared to control” value is -29%; the “Total cholesterol LDL, % change compared to control” value is -19%. The “Total cholesterol VLDL, % change compared to control” value in data set [4] (setting [14]) is listed as -40%. Further, in data set [4] (100 mg/kg daily, control standardization to 1.00), the “Cholesterol HDL/LDL” value was found to be 0.88.
As to `CC[C@H](C)C(=O)O[C@H]1C[C@@H](C)C=C2C=C[C@H](C)[C@H](CC[C@@H](O)C[C@@H](O)CC(=O)O)[C@H]21` [mevinolin sodium salt, reference compound], the IC50 in data set [1] (HepG2, sodium salts, test compounds corrected by deviation of mevinolin sodium from its mean value, read-out: IC50 (concentration necessary for a 50% inhibition)) turned out to be 50 nM. The IC70 in data set [1] (HepG2, sodium salts, test compounds corrected by deviation of mevinolin sodium from its mean value, read-out: IC70 (concentration necessary for a 70% inhibition)) came to 150 nM. Further, the “IC70 (concentration necessary for a 70% inhibition)” value in data set [1] (sodium salts, test compounds corrected by deviation of mevinolin sodium from its mean value) stood at 150 nM.
